Structures can show the parent of a compound that is named as a salt.

Experimental findings from patent publication US8212051B2, “Process for the preparation of pure irbesartan” (Lek Pharmaceuticals, D.D., priority 2006, dated 2012) are described below.

Data set [1] is described as follows: Solubility in boiling acetone (amount of acetone needed to dissolve 1 g). In kind it is physicochemical. The settings on record: per 1 g substance.
Data set [2] is described as follows: Stability against degradation when dissolved in hot mixture of solvents and extracted. In kind it is physicochemical. The settings on record: salt dissolved in hot mixture of solvents and extracted; compared with purification via HCl salt.

As to `CCCCC1=NC2(CCCC2)C(=O)N1Cc1ccc(-c2ccccc2-c2nnn[nH]2)cc1` [irbesartan HBr, hydrobromide acid addition salt of 2-n-butyl-3-[[2′-(tetrazol-5-yl)biphenyl-4-yl]methyl]-1.3-diazaspiro[4.4]non-1-en-4-one], the “amount of acetone needed to dissolve 1 g” value in data set [1] is 6 mL. In addition, in data set [2], the stability against degradation entry was “more stable against degradation”.
Take `CCCCC1=NC2(CCCC2)C(=O)N1Cc1ccc(-c2ccccc2-c2nnn[nH]2)cc1` [irbesartan HCl]: in data set [1], the “amount of acetone needed to dissolve 1 g” value turned out to be 15 mL.
Regarding `CCCCC1=NC2(CCCC2)C(=O)N1Cc1ccc(-c2ccccc2-c2nnn[nH]2)cc1` [irbesartan, 2-n-butyl-3-[[2′-(tetrazol-5-yl)biphenyl-4-yl]methyl]-1.3-diazaspiro[4.4]non-1-en-4-one], the “amount of acetone needed to dissolve 1 g” value in data set [1] was found to be 100 mL.
